According to patent EP1935887A1, “Heterocyclic substituted carbonyl derivatives and their use as dopamine D3 receptor ligands” (Aventis Pharmaceuticals Inc., priority 2001, dated 2002):

biological target: T1, Cloned Human Dopamine D3 Receptors (Homo sapiens, UniProt P35462); test: [N-Methyl-3H]Spiroperidol binding to cloned human dopamine D3 receptors; settings: Table 2; unit inferred; read-out: d3Ki
T1 construct: expressed in transfected cells; membrane homogenate
In short: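 [N-methyl-3H]spiroperidol binding is run in Tris buffer, pH 7.7. Receptor source is membranes of a stably transfected, high-expressing CHO clone carrying the human D3 gene, kept at -80°C in 10% DMSO.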

T1 sequence (P35462 whole entry): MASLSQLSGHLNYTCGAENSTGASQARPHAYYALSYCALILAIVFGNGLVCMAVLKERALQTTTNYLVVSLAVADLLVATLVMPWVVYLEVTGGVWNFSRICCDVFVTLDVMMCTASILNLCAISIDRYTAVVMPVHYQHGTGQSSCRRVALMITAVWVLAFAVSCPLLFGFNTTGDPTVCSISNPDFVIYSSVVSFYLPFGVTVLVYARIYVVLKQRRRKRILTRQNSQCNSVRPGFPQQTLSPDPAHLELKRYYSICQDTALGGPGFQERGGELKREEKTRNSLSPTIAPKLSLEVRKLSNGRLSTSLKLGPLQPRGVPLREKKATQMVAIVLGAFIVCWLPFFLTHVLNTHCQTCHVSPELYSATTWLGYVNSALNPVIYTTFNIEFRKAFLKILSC

| Compound | Ki |
| --- | --- |
| CC1CCC(NC(=O)C2CC2CN2CCCN(c3cc(C(F)(F)F)nc(C(C)(C)C)n3)CC2)CC1 (centres unmarked) [compound 817261] | 0.00923 µM |
| CC[C@H]1CC[C@H](NC(=O)CCCN2CCN(c3csc4cc(F)ccc34)CC2CCCc2ccccc2)CC1 (some centres unmarked) [compound 827107] | 0.489 µM |
| Cc1cccc(CNC(=O)[C@@H]2C[C@H]2CN2CCN(c3csc4cc(C(F)(F)F)ccc34)CC2)c1 [compound 826072] | 0.0626 µM |
| CCC1CCC(NC(=O)C2CC2CN2CCN(c3ccc(C)c(C)c3)CC2)CC1 (centres unmarked) [compound 817046] | 0.00192 µM |
| CCC1(O)CCC(NC(=O)[C@@H]2C[C@H]2CN2CCN(c3csc4cc(C(F)(F)F)ccc34)CC2)CC1 (some centres unmarked) [compound 818497] | 0.00552 µM |
| COc1ccc(Cl)cc1N1CCN(CC2CC2C(=O)NC2CCC(C)CC2)CC1 (centres unmarked) [compound 817038] | 0.000952 µM |
| O=C(CCCCN1CCN(c2csc3cc(F)ccc23)CC1)Nc1ccc(F)cc1 [compound 813384] | 0.074 µM |
| CN(C(=O)CCCCN1CCN(c2csc3cc(F)ccc23)CC1)c1ccccc1 [compound 822129] | 0.038 µM |

Next, values leading:

| Ki | Compound |
| --- | --- |
| 0.0186 µM | CCC1CCC(NC(=O)C2CC2CN2CCN(c3ccc(C(F)(F)F)cc3)CC2)CC1 (centres unmarked) [817043A] |
| 0.0256 µM | CC1CCC(NC(=O)C2CC2CN2CCCN(c3ccccn3)CC2)CC1 (centres unmarked) [compound 818498] |
| 0.106 µM | COc1cc(CNC(=O)[C@@H]2C[C@H]2CN2CCN(c3csc4cc(C(F)(F)F)ccc34)CC2)cc(OC)c1OC [compound 826079] |
| 0.0546 µM | O=C(NCc1ccccc1)[C@@H]1C[C@H]1CN1CCN(c2csc3cc(C(F)(F)F)ccc23)CC1 [compound 826068] |
| 0.00098 µM | CC1CCC(NC(=O)C2CC2CN2CCN(c3cccc(Cl)c3Cl)CC2)CC1 (centres unmarked) [compound 817037] |

same assay, conditions: Table 2 part the 10th table; read-out: d3Ki

| Compound | Ki |
| --- | --- |
| CC1CCCN(C(=O)CCCN2CCN(c3csc4cc(F)ccc34)CC2Cc2ccccc2)C1 (centres unmarked) [compound 827096] | 0.0447 µM |
| O=C([C@@H]1C[C@H]1CN1CCN(c2csc3cc(C(F)(F)F)ccc23)CC1)N1CCC(O)(c2ccc(Cl)cc2)CC1 [compound 826900] | 0.181 µM |
| O=C(CCCN1CCCN(c2csc3cc(F)ccc23)CC1)N1CCC(O)CC1 [compound 826832] | 0.0161 µM |

Further lines, results first:

| Ki | Compound |
| --- | --- |
| 0.00172 µM | CC1CCN(C(=O)[C@@H]2C[C@H]2CN2CCCN(c3csc4cc(F)ccc34)CC2)CC1 [compound 826874] |
| 0.025 µM | NC(=O)C1CCN(C(=O)[C@@H]2C[C@H]2CN2CCN(c3csc4cc(C(F)(F)F)ccc34)CC2)CC1 [compound 826661] |
| 0.0303 µM | CC1CCCN1C(=O)[C@@H]1C[C@H]1CN1CCN(c2csc3cc(C(F)(F)F)ccc23)CC1 (some centres unmarked) [compound 826918] |
| 0.144 µM | CC1CC(C)CN(C(=O)CCCN2CCN(c3csc4cc(F)ccc34)CC2Cc2ccccc2)C1 (centres unmarked) [compound 827099] |
| 0.132 µM | NC(=O)C1CCN(C(=O)[C@@H]2C[C@H]2CN2CCCN(c3csc4cc(C(F)(F)F)ccc34)CC2)CC1 [compound 826687] |

same assay, conditions: read-out: D3 Ki

| Ki | Compound |
| --- | --- |
| 0.189 µM | COc1cccc2c(C3CCN(C[C@@H]4C[C@H]4C(=O)N4CCC(Oc5ccc(F)cc5)CC4)CC3)noc12 [compound 831878] |
| 0.237 µM | CC(C)(C)OC(=O)N1CCN(C[C@@H]2C[C@H]2C(=O)N[C@H]2CC[C@H](C)CC2)CC1 [compound 827184] |
| 0.0347 µM | CN1CCCC1CCNC(=O)[C@@H]1C[C@H]1CN1CCC(c2noc3ccsc23)CC1 (mixture of isomers) [compound 831936] |

same assay, conditions: read-out: d3Ki

| Compound | Ki |
| --- | --- |
| CC[C@H]1CC[C@H](NC(=O)[C@@H]2C[C@H]2CN2CCCN(c3csc4cc(F)ccc34)CC2)CC1 [compound 826866] | 0.00124 µM |
| CC[C@H]1CC[C@H](NC(=O)[C@@H]2C[C@H]2CN2CCN(c3ccc(C(F)(F)F)cn3)CC2)CC1 [compound 827221] | 0.0992 µM |

Continued, values first:

| Ki | Compound |
| --- | --- |
| 0.058 µM | CC[C@H]1CC[C@H](NC(=O)[C@@H]2C[C@H]2CN2CCCN(c3csc4cc(C(F)(F)F)ccc34)CC2)CC1 [compound 826680] |
| 0.000711 µM | CCC1CCC(NC(=O)C2CC2CN2CCN(c3ccccc3C)CC2)CC1 (centres unmarked) [compound 818675] |
| 0.048 µM | O=C(NC1CCCCCCCC1)[C@@H]1C[C@H]1CN1CCCN(c2csc3cc(C(F)(F)F)ccc23)CC1 [compound 826681] |
